One assay addresses T1, TC-PTP (Homo sapiens, UniProt P17706).
T1 sequence (P17706 1-415): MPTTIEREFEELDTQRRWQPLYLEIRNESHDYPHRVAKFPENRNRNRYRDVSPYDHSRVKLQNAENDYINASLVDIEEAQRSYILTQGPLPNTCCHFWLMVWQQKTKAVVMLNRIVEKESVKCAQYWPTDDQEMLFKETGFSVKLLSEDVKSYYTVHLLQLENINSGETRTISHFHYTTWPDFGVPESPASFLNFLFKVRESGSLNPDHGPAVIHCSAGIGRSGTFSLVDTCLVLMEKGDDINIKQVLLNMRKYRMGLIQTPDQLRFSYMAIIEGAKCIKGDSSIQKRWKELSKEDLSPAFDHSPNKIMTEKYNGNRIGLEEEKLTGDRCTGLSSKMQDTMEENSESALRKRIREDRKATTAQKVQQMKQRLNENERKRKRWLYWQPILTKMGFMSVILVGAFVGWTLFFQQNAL
Nature of the assay: PTP selectivity pNPP assay, TC-PTP. In kind it is biochemical, mammalian.

The next assay concerns the target T2, mPTPB (Mycobacterium tuberculosis, UniProt I6WXK4).
T2 sequence (I6WXK4 1-276): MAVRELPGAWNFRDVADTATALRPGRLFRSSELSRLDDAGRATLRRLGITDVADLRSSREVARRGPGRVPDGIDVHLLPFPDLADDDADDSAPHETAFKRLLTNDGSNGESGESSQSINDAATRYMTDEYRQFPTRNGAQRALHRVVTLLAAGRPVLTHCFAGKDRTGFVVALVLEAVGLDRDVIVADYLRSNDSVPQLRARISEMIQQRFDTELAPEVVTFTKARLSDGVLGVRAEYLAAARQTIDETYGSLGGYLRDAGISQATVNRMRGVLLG
The class given is biochemical.

For `O=C(O)c1cc2c(C#Cc3ccc(F)cc3F)c(-c3ccccc3)oc2cc1O` [Compound 4e, 3-((2,4-difluorophenyl)ethynyl)-6-hydroxy-2-phenylbenzofuran-5-carboxylic acid], the 50% inhibitory concentration (IC50) – broadly, the point on the concentration scale where inhibition reaches its midpoint – on TC-PTP was 9 ± 0.5 µM.
`O=C(O)c1cc2c(C#Cc3cc(F)cc(F)c3)c(-c3ccccc3)oc2cc1O` [Compound 4f, 3-((3,5-difluorophenyl)ethynyl)-6-hydroxy-2-phenylbenzofuran-5-carboxylic acid]: the “decrease in IC50 for mPTPB compared to 4b” value on mPTPB was found to be 3.3 fold.
Consider `O=C(O)c1cc2c(C#Cc3cccc(C(F)(F)F)c3)c(-c3ccccc3)oc2cc1O` [Compound 4g, 6-hydroxy-2-phenyl-3-((3-(trifluoromethyl)phenyl)ethynyl)benzofuran-5-carboxylic acid], for which the “mode of mPTPB inhibition” value at mPTPB is “reversible and noncompetitive”.

Values taken from article PMC3574584 (Journal of medicinal chemistry, 2013).
